Source: patent US20040019430A1, “Methods and systems for analyzing complex biological systems” (priority 2001, published 2004)

Assays:
[1] = system: Saccharomyces cerevisiae wild type strain BY4743; test: AF1 metabolite analysis (GC-MS, LC-MS) of yeast cells treated with antifungal drugs; format: cell-based; set-up: Fold Change: scale not given here; conditions: for # Compounds perturbed by treatment: yeast, 2x MIC, two hours
[2] = system: Saccharomyces cerevisiae wild type strain BY4743; test: AF1 combined gene expression and metabolite data mapped to KEGG reactions and pathways; format: cell-based; conditions: yeast AF1
Excerpt: In AF1, two different technologies were utilized: gene expression analysis (for examination of mRNA expression) and metabolite analysis. […] As noted previously, existing metabolic databases may be helpful in practicing the methods and systems of the present invention, but many databases include limitations that make their use in data analysis and pathway mapping less than straightforward. […] This caveat to KEGG makes it difficult to pinpoint the correct pathway when attempting to link a gene to a specific pathway. […] The pathway score indicates how meaningful the mapping is, or how likely it is to be correctly indicative of the pathway involved in the perturbation under examination. The method provides a pathway score based on perturbation levels of genes and/or compounds and the information content of each gene and/or compound in the pathway, i.e., a pathway score indicates the extent to which other pathways are mapped to a gene/compound. For example, imagine that two genes are perturbed in a particular experiment. One gene maps to only one pathway, giving a high degree of probability that the perturbed pathway is the one identified in the mapping. The second gene maps to three pathways. In the later example, there is only one-third the probability that the pathway identified in the mapping is the one perturbed. The present invention provides a method for calculating the pathway scores, so that more weight is given to a score of a gene or compound that maps to only one pathway than to a score of a gene or compound that maps to multiple pathways. […] Where n=the total number of genes in the pathway; ipath—count=the number of pathways containing a gene; and j=the number of genes in the pathway that are perturbed. Another factor to be considered when weighting a pathway score is the degree of perturbation. Degree of perturbation can be calculated, for example, based on a number of standard deviations from a norm, and included in an equation such as the one shown above, so that not only the number of pathways is taken into account, but also accounts for the amount of gene transcript or compound present as compared to a control. Compounds were also linked to pathways using the KEGG database. KEGG links 676 compounds measured in AF1 to a total of 92 pathways. Of the 676 compounds under consideration, 77 were detected in the AF1 samples. […] The multiple mapping feature of KEGG makes it difficult to pinpoint the correct pathway when trying to link a compound to a specific pathway. […] A pathway score calculation is applied to the compounds to account for both information content (number of pathways a compound maps to) and perturbation level. The data were then combined to determine the number of reactions showing an enzyme and at least one compound perturbed, and to determine the number of pathways having at least one enzyme and one perturbed compound perturbed. The results of the analysis are represented in Tables 16 and 17, and were difficult to interpret, illustrating that the ability to draw conclusions from compound mapping to pathways is limited when absent additional data.

SMILES: C[C@@H]1[C@H](O)[C@@H](C)/C=C/C=C/C=C/C=C/C=C/C=C/C=C/[C@H](O[C@@H]2O[C@H](C)[C@@H](O)[C@H](N)[C@@H]2O)C[C@@H]2O[C@](O)(C[C@@H](O)C[C@@H](O)[C@H](O)CC[C@@H](O)C[C@@H](O)CC(=O)O[C@H]1C)C[C@H](O)[C@H]2C(=O)O [Amphoteracin B]
- # Compounds perturbed by treatment ([1]; P < 0.05): 16
- # Compounds perturbed by treatment ([1]; P < 0.1): 21
- Fold Change ([1]; metabolite 3-indolylacetonitri, platform nLC): −0.9998
- Fold Change ([1]; metabolite 4-aminobenzoic acid, platform pLC): 0
- Fold Change ([1]; metabolite 4-methylcatechol, platform nLC): 0
- Fold Change ([1]; metabolite 4-methylcatechol, platform pLC): 0
- Fold Change ([1]; metabolite 4ambutyrate/dimglyc, platform pLC): 0.01279
- Fold Change ([1]; metabolite 4aminobutyrate/dimg, platform nLC): −0.1983
- Fold Change ([1]; metabolite DL-aminoadipic acid, platform pLC): 0.4703
- Fold Change ([1]; metabolite DLaminoadipic acid, platform nLC): 1.411
- Fold Change ([1]; metabolite NacetylD-glucosamine, platform nLC): 0
- Fold Change ([1]; metabolite NacetylD-glucosamine, platform pLC): 0
- Fold Change ([1]; metabolite NacetylL-glutamate, platform nLC): −0.1078
- Fold Change ([1]; metabolite NacetylL-glutamate, platform pLC): 0
- Fold Change ([1]; metabolite NacetylL-ornithine, platform nLC): 0
- Fold Change ([1]; metabolite NacetylL-ornithine, platform pLC): 1.319
- Fold Change ([1]; metabolite decanoic acid, platform nLC): −0.08716
- Fold Change ([1]; metabolite desmosterol, platform GC): 0
- Fold Change ([1]; metabolite diaminopimelic acid, platform nLC): 0
- Fold Change ([1]; metabolite diaminopimelic acid, platform pLC): 0
- Fold Change ([1]; metabolite dihydrofolic acid, platform nLC): 0
- Fold Change ([1]; metabolite dihydrofolic acid, platform pLC): 0
- Fold Change ([1]; metabolite dipicolinic acid, platform pLC): 0
- Fold Change ([1]; metabolite disaccaride1, platform GC): −1
- Fold Change ([1]; metabolite disaccaride2, platform GC): −0.9977
- Fold Change ([1]; metabolite disaccaride3, platform GC): −0.9977
- Fold Change ([1]; metabolite ergosterol, platform GC): 2.303
- Fold Change ([1]; metabolite estrone, platform nLC): 0
- Fold Change ([1]; metabolite farnesol, platform nLC): 0
- Fold Change ([1]; metabolite folic acid, platform nLC): 0
- Fold Change ([1]; metabolite folic acid, platform pLC): 0
- Fold Change ([1]; metabolite fucosterol, platform GC): −0.6553
- Fold Change ([1]; metabolite fumaric/3m2oxobutan, platform nLC): 0.4423
- Fold Change ([1]; metabolite gallic acid, platform nLC): 0.1622
- Fold Change ([1]; metabolite gibberellic, platform nLC): 0
- Fold Change ([1]; metabolite glucosamine-6PO4, platform nLC): −0.9951
- Fold Change ([1]; metabolite glucosamine-6PO4, platform pLC): 0
- Fold Change ([1]; metabolite glucosamine, platform pLC): 0
- Fold Change ([1]; metabolite glutamate, platform pLC): 0.4341
- Fold Change ([1]; metabolite glutamic/acetylseri, platform nLC): 0.1414
- Fold Change ([1]; metabolite glutamine/lysine, platform nLC): 0.07919
- Fold Change ([1]; metabolite glutamine/lysine, platform pLC): 0.3981
- Fold Change ([1]; metabolite glutamine, platform GC): −0.9116
- Fold Change ([1]; metabolite glutathione, platform pLC): −0.03348
- Fold Change ([1]; metabolite glycanopyrose, platform GC): −0.958
- Fold Change ([1]; metabolite glycerol, platform GC): −0.815
- Fold Change ([1]; metabolite glycine, platform GC): 0.8807
- Fold Change ([1]; metabolite guanine, platform nLC): 0
- Fold Change ([1]; metabolite guanosine, platform nLC): 1.131
- Fold Change ([1]; metabolite guanosine, platform pLC): 0.7598
- Fold Change ([1]; metabolite hexadecanoic acid, platform GC): −0.2427
- Fold Change ([1]; metabolite histidine, platform nLC): 0
- Fold Change ([1]; metabolite histidine, platform pLC): 0
- Fold Change ([1]; metabolite homogentisic/uric, platform nLC): 0
- Fold Change ([1]; metabolite hydrocortisone, platform nLC): 0
- Fold Change ([1]; metabolite hydrocortisone, platform pLC): 0
- Fold Change ([1]; metabolite hypoxanthine, platform nLC): 0.1655
- Fold Change ([1]; metabolite hypoxanthine, platform pLC): 0.2057
- Fold Change ([1]; metabolite indole3-pyruvic acid, platform nLC): 0
- Fold Change ([1]; metabolite inostol/glucos/sorb, platform nLC): −0.5905
- Fold Change ([1]; metabolite iso citric acid, platform GC): −0.6183
- Fold Change ([1]; metabolite isocitric/citric/qu, platform nLC): 2.549
- Fold Change ([1]; metabolite isoleucine, platform GC): −0.9533
- Fold Change ([1]; metabolite itaconic acid dimes, platform pLC): 0
- Fold Change ([1]; metabolite jasmonic acid, platform nLC): 0
- Fold Change ([1]; metabolite kinetin, platform nLC): 0
- Fold Change ([1]; metabolite kinetin, platform pLC): 0
- Fold Change ([1]; metabolite lactic acid, platform nLC): −0.02583
- Fold Change ([1]; metabolite lanosterol, platform GC): −1
- Fold Change ([1]; metabolite lauric acid, platform nLC): 0.1225
- Fold Change ([1]; metabolite leucine/isoleucine/, platform nLC): 0.1319
- Fold Change ([1]; metabolite leucine/isoleucine/, platform pLC): 0.2746
- Fold Change ([1]; metabolite leucine, platform GC): −0.9443
- Fold Change ([1]; metabolite luteolin, platform nLC): 0
- Fold Change ([1]; metabolite luteolin, platform pLC): 0
- Fold Change ([1]; metabolite lysine, platform GC): −0.3925
- Fold Change ([1]; metabolite malic acid, platform GC): −0.963
- Fold Change ([1]; metabolite malic acid, platform nLC): 0.6212
- Fold Change ([1]; metabolite malonic acid, platform nLC): 0
- Fold Change ([1]; metabolite mannitol, platform pLC): 0.4543
- Fold Change ([1]; metabolite menthol*, platform nLC): −0.07013
- Fold Change ([1]; metabolite methionine, platform nLC): 0
- Fold Change ([1]; metabolite methionine, platform pLC): 0.3299
- Fold Change ([1]; metabolite mevalonic acid lactone, platform GC): −0.1276
- Fold Change ([1]; metabolite mevalonic lactone, platform pLC): −0.4606
- Fold Change ([1]; metabolite niacinamide, platform pLC): 0
- Fold Change ([1]; metabolite nicotinic acid, platform nLC): 0.3131
- Fold Change ([1]; metabolite nicotinic acid, platform pLC): −0.9989
- Fold Change ([1]; metabolite nopaline, platform nLC): 0.3342
- Fold Change ([1]; metabolite nopaline, platform pLC): 0
- Fold Change ([1]; metabolite octadecanoic acid, platform GC): 0.21
- Fold Change ([1]; metabolite oleic acid, platform GC): −0.4593
- Fold Change ([1]; metabolite oleic acid, platform nLC): 0.689
- Fold Change ([1]; metabolite ornithine2, platform GC): −1
- Fold Change ([1]; metabolite ornithine3, platform GC): −0.9853
- Fold Change ([1]; metabolite ornithine, platform nLC): 2.534
- Fold Change ([1]; metabolite ornithine, platform pLC): 0.5049
- Fold Change ([1]; metabolite orotic acid, platform nLC): 8380
- Fold Change ([1]; metabolite palmiteliadic acid, platform GC): 0.515
- Fold Change ([1]; metabolite palmitic acid, platform nLC): 0.3979
- Fold Change ([1]; metabolite phenylalanine, platform GC): −0.9797
- Fold Change ([1]; metabolite phenylalanine, platform nLC): −0.1906
- # Reactions (title: Number Of Pathways Having at Least One Enzyme and One Compound Perturbed) [2]: 37
- # Reactions having an enzyme and at least one compound perturbed [2]: 54
